Experimental data from US12410160B2 (Gilead Sciences, Inc., priority 2021, dated 2025).

What was measured:
[1] = molecular target: human KHK-C (Homo sapiens (Human), UniProt P50053); assay: KHK Biochemical Assay (IC50), ADP-Glo, KHK-C; conditions: average of at least two separate assays
Procedure, shortened: (§1)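 ADP-Glo luminescence measured ADP made over a 4 h room-temperature reaction of ATP plus fructose, started after 30 min compound–enzyme pre-incubation. Buffer: 50 mM Hepes pH 7.4, 140 mM KCl, 5 mM MgCl2, 0.01% Triton-X. Enzyme was His-tagged, BL21 (DE3)-expressed, Ni-NTA-purified; compounds in 1:3 DMSO dilution series.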

[2] = molecular target: human KHK-A (Homo sapiens (Human), UniProt P50053); assay: KHK Biochemical Assay (IC50), ADP-Glo, KHK-A; conditions: average of at least two separate assays
Procedure, shortened: as §1

Sequence of human KHK-A (P50053 other isoform, or with tags, fused parts or gaps): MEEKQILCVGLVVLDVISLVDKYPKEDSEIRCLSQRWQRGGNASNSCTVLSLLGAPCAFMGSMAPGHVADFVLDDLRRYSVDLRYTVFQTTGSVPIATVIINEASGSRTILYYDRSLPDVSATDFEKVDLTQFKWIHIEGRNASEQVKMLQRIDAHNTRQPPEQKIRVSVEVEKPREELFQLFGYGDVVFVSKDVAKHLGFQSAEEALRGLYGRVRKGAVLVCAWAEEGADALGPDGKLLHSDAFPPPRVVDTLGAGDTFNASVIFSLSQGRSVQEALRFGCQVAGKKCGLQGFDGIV
Sequence of human KHK-C (P50053 whole entry): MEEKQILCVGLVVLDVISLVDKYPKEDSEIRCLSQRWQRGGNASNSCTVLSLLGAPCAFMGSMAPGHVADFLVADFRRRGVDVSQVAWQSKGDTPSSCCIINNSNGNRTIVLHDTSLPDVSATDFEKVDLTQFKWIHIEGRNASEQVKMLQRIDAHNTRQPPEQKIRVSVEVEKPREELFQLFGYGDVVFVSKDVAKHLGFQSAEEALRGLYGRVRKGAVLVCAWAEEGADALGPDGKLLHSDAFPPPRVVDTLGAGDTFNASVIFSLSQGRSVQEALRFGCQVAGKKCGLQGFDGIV

| Structure (SMILES) | IC50 ([1]; ADP-Glo) [nM] | IC50 ([2]; ADP-Glo) [nM] | IC50 [1] [nM] | IC50 [2] [nM] |
| --- | --- | --- | --- | --- |
| C[C@H]1CCN1c1nc2c(c(-c3ccc(-c4noc(=O)[nH]4)cc3)n1)CCC2 [Example 871, (S)-3-(4-(2-(2-methylazetidin-1-yl)-6,7-dihydro-5H-cyclopenta[d]pyrimidin-4-yl)phenyl)-1,2,4-oxadiazol-5(4H)-one] | 23.4 | 50.4 | – | – |
| C[C@H]1CCN1c1nc2c(c(-c3cc(C(N)=O)cc(C(N)=O)c3)n1)CCC2 [Example 116, (S)-5-(2-(2-methylazetidin-1-yl)-6,7-dihydro-5H-cyclopenta[d]pyrimidin-4-yl)isophthalamide] | 39.8 | 54.6 | – | – |
| C[C@H]1CCN1c1nc2c(c(-c3cccc(C(N)=O)c3)n1)C1CC1C2 (stereo partly drawn) [Example 445, 3-(2-((S)-2-methylazetidin-1-yl)-4b,5,5a,6-tetrahydrocyclopropa[3,4]cyclopenta[1,2-d]pyrimidin-4-yl)benzamide] | – | – | 306 | 130 |
| C[C@H]1CCN1c1nc2c(c(-c3ccc4c(c3)CCCC4NS(C)(=O)=O)n1)CCC2 (stereo partly drawn) [Example 890, N-(6-(2-((S)-2-methylazetidin-1-yl)-6,7-dihydro-5H-cyclopenta[d]pyrimidin-4-yl)-1,2,3,4-tetrahydronaphthalen-1-yl)methanesulfonamide] | 60.8 | 141 | – | – |
| C[C@H]1[C@H](O)CN1c1nc2c(c(-c3cccc(C(N)=O)c3)n1)CCC2 [Example 32] | 125 | 86.8 | – | – |
| C[C@H]1CCN1c1nc2c(c(-c3ccnc(NCCO)c3)n1)CCC2 [Example 282] | 48.2 | 42.6 | – | – |
| C[C@H]1CCN1c1nc2c(c(-c3cc(N)cc(C(N)=O)c3)n1)CCC2 [Example 299, (S)-3-amino-5-(2-(2-methylazetidin-1-yl)-6,7-dihydro-5H-cyclopenta[d]pyrimidin-4-yl)benzamide] | 45.6 | 47.3 | – | – |
| C[C@H]1[C@H](O)CN1c1nc2c(c(-c3ccc(C4(N)CC4)cc3)n1)CCC2 [Example 301, (2S,3R)-1-(4-(4-(1-aminocyclopropyl)phenyl)-6,7-dihydro-5H-cyclopenta[d]pyrimidin-2-yl)-2-methylazetidin-3-ol] | 3.7 | 9.9 | – | – |
| Cc1cc(-c2nc(N3CC[C@@H]3C)nc3c2CCC3)sn1 [Example 327, 3-methyl-5-[2-[(2S)-2-methylazetidin-1-yl]-6,7-dihydro-5H-cyclopenta[d]pyrimidin-4-yl]isothiazole] | 38.2 | 96.8 | – | – |
| C[C@H]1CCN1c1nc2c(c(-c3ccc4c(c3)CCNC4C(F)(F)F)n1)CCC2 (stereo partly drawn) [Example 859, 6-(2-((S)-2-methylazetidin-1-yl)-6,7-dihydro-5H-cyclopenta[d]pyrimidin-4-yl)-1-(trifluoromethyl)-1,2,3,4-tetrahydroisoquinoline] | 301 | 434 | – | – |
| C[C@H]1CCN1c1nc2c(c(-c3cccc(-c4ccn[nH]4)c3)n1)CCC2 [Example 279, (S)-4-(3-(1H-pyrazol-5-yl)phenyl)-2-(2-methylazetidin-1-yl)-6,7-dihydro-5H-cyclopenta[d]pyrimidine] | 201 | 159 | – | – |
| C#CC1CCN1c1nc2c(c(-c3ccc(C(N)=O)cc3)n1)CCC2 (centres unmarked) [Example 111, 4-(2-(2-ethynylazetidin-1-yl)-6,7-dihydro-5H-cyclopenta[d]pyrimidin-4-yl)benzamide] | 152 | 186 | – | – |
| CC1CN(c2nc3c(c(-c4ccc(C(N)=O)cc4)n2)CCC3)C1C (centres unmarked) [Example 105, 4-(2-(2,3-dimethylazetidin-1-yl)-6,7-dihydro-5H-cyclopenta[d]pyrimidin-4-yl)benzamide] | 205 | 253 | – | – |
| C[C@H]1CCN1c1nc2c(c(-c3ccc4c(=O)[nH]c(=O)n(C)c4c3)n1)CCC2 [Example 858, (S)-1-methyl-7-(2-(2-methylazetidin-1-yl)-6,7-dihydro-5H-cyclopenta[d]pyrimidin-4-yl)quinazoline-2,4(1H,3H)-dione] | 43.6 | 18 | – | – |
| C[C@H]1[C@H](O)CN1c1nc(-c2ccc3c(c2)OC[C@]32NC(=O)N(C)C2=O)c2c(n1)C(F)(F)CC2 (single isomer, unassigned) [Example 827] | 11.8 | > 100 | – | – |
| CC1CCc2nc(N3CC[C@@H]3C)nc(-c3ccccc3)c21 (stereo partly drawn) [Example 339, 5-methyl-2-[(2S)-2-methylazetidin-1-yl]-4-phenyl-6,7-dihydro-5H-cyclopenta[d]pyrimidine] | 2220 | 1900 | – | – |
| C[C@H]1[C@H](O)CN1c1nc2c(c(-c3ccc(CN)s3)n1)CCC2 [Example 363, (2S,3R)-1-[4-[5-(aminomethyl)-2-thienyl]-6,7-dihydro-5H-cyclopenta[d]pyrimidin-2-yl]-2-methyl-azetidin-3-ol] | 29.1 | 25.8 | – | – |

| Structure (SMILES) | IC50 ([1]; ADP-Glo) [nM] | IC50 ([2]; ADP-Glo) [nM] | IC50 [1] [nM] | IC50 [2] [nM] |
| --- | --- | --- | --- | --- |
| C[C@H]1CCN1c1nc2c(c(-c3cccc(C(=O)NCCN)c3)n1)CCC2 [Example 52, (S)—N-(2-aminoethyl)-3-(2-(2-methylazetidin-1-yl)-6,7-dihydro-5H-cyclopenta[d]pyrimidin-4-yl)benzamide] | 42.7 | 22.2 | – | – |
| C[C@H]1CCN1c1nc(-c2cccc(C(N)=O)c2)c2c(n1)[C@H]1CC[C@@H]2C1 [Example 62, 3-((5R,8S)-2-((S)-2-methylazetidin-1-yl)-5,6,7,8-tetrahydro-5,8-methanoquinazolin-4-yl)benzamide] | 2930 | 1920 | – | – |
| C[C@H]1CCN1c1nc2c(c(-c3ccc(-n4cccn4)cc3)n1)CCC2 [Example 102, (S)-4-(4-(1H-pyrazol-1-yl)phenyl)-2-(2-methylazetidin-1-yl)-6,7-dihydro-5H-cyclopenta[d]pyrimidine] | 420 | 279 | – | – |
| Cc1nnc(-c2ccc(-c3nc(N4CC[C@@H]4C)nc4c3CCC4)cc2)o1 [Example 100, (S)-2-methyl-5-(4-(2-(2-methylazetidin-1-yl)-6,7-dihydro-5H-cyclopenta[d]pyrimidin-4-yl)phenyl)-1,3,4-oxadiazole] | 161 | 161 | – | – |
| C[C@H]1CCN1c1nc2c(c(-c3cccc(-c4nnn[nH]4)c3)n1)CCC2 [Example 876, (S)-4-(3-(1H-tetrazol-5-yl)phenyl)-2-(2-methylazetidin-1-yl)-6,7-dihydro-5H-cyclopenta[d]pyrimidine] | 99.4 | 70.4 | – | – |
| C[C@H]1CCN1c1nc(-c2ccccc2)c2c(n1)C1CC1C2 (mixture of isomers) [Example 332, 9-[(2S)-2-methylazetidin-1-yl]-7-phenyl-8,10-diazatricyclo[4.4.0.02,4]deca-1(10),6,8-triene] | 2170 | 1910 | – | – |
| C[C@H]1[C@H](O)CN1c1nc(-c2ccc(OC3CC3)c([S@](C)(=N)=O)c2)c2c(n1)C(F)(F)CC2 (single isomer, unassigned) [Example 543] | – | – | 10.6 | 6.2 |
| COc1ccc(-c2nc(N3CC[C@@H]3C)nc3c2CCC3)cc1S(=N)(=O)c1ccc(C#N)cc1C (stereo partly drawn) [Example 846, 4-(2-methoxy-5-(2-((S)-2-methylazetidin-1-yl)-6,7-dihydro-5H-cyclopenta[d]pyrimidin-4-yl)phenylsulfonimidoyl)-3-methylbenzonitrile] | 46.1 | 33.6 | – | – |
| C[C@H]1CCN1c1nc2c(c(-c3cccc(C(=O)N4CC(C(=O)O)C4)c3)n1)CCC2 [Example 68, (S)-1-(3-(2-(2-methylazetidin-1-yl)-6,7-dihydro-5H-cyclopenta[d]pyrimidin-4-yl)benzoyl)azetidine-3-carboxylic acid] | 45.1 | 94.3 | – | – |
| C[C@H]1CCN1c1nc2c(c(-c3ccc4nc(C(F)(F)F)[nH]c4c3)n1)CCC2 [Example 241, 6-[2-[(2S)-2-methylazetidin-1-yl]-6,7-dihydro-5H-cyclopenta[d]pyrimidin-4-yl]-2-(trifluoromethyl)-1H-benzimidazole] | 1070 | 803 | – | – |
| C[C@H]1CCN1c1nc2c(c(-c3ccc(-c4ccccc4)nc3)n1)CCC2 [Example 55, (S)-2-(2-methylazetidin-1-yl)-4-(6-phenylpyridin-3-yl)-6,7-dihydro-5H-cyclopenta[d]pyrimidine] | 801 | 1080 | – | – |
| C[C@H]1CCN1c1nc2c(c(-c3ccc(C(N)=O)c(Cc4ccccc4)c3)n1)CCC2 [Example 841, (S)-2-benzyl-4-(2-(2-methylazetidin-1-yl)-6,7-dihydro-5H-cyclopenta[d]pyrimidin-4-yl)benzamide] | 40.5 | 28.1 | – | – |
| C[C@H]1CCN1c1nc2c(c(-c3ccc(-c4nccn4C)cc3)n1)CCC2 [Example 101, (S)-4-(4-(1-methyl-1H-imidazol-2-yl)phenyl)-2-(2-methylazetidin-1-yl)-6,7-dihydro-5H-cyclopenta[d]pyrimidine] | 119 | 69.1 | – | – |
| C[C@H]1CCN1c1nc2c(c(-c3cccc(C(=O)N4CC(CC(=O)O)C4)c3)n1)CCC2 [Example 69, (S)-2-(1-(3-(2-(2-methylazetidin-1-yl)-6,7-dihydro-5H-cyclopenta[d]pyrimidin-4-yl)benzoyl)azetidin-3-yl)acetic acid] | 145 | 286 | – | – |
| CCS(=N)(=O)c1cc(-c2nc(N3CC[C@@H]3C)nc3c2CCC3)ccc1OC (stereo partly drawn) [Example 861, ethyl(imino)(2-methoxy-5-(2-((S)-2-methylazetidin-1-yl)-6,7-dihydro-5H-cyclopenta[d]pyrimidin-4-yl)phenyl)-λ^6-sulfanone] | 15.2 | 4.9 | – | – |
| CCc1cc(-c2nc(N3CC[C@@H]3C)nc3c2CCC3)ccc1C1(N)COC1 [Example 864, (S)-3-(2-ethyl-4-(2-(2-methylazetidin-1-yl)-6,7-dihydro-5H-cyclopenta[d]pyrimidin-4-yl)phenyl)oxetan-3-amine] | 6.3 | 10 | – | – |
| c1ccc(-c2nc(C3CC4CCC3C4)nc3c2CCC3)cc1 (centres unmarked) [Example 98, 2-(bicyclo[2.2.1]heptan-2-yl)-4-phenyl-6,7-dihydro-5H-cyclopenta[d]pyrimidine] | > 5000 | > 5000 | – | – |
